Measurements published in PubChem BioAssay (NCI).
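96-well plates; 48 h exposure; 5 concentrations. Endpoints by linear interpolation between flanking doses. Not reached: highest tested concentration assigned. At the GI50, growth is halved. TGI denotes the concentration required for complete inhibition of growth.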

Assays:
Experiment in all cases: NCI-60 cell line screen, 48 h
[1] = tested on: SW-620 colon
[2] = tested on: OVCAR-5 ovarian
[3] = tested on: ACHN renal
[4] = tested on: MDA-MB-231 breast
[5] = tested on: RXF 393 renal
[6] = tested on: COLO 205 colon
[7] = tested on: NCI-H226 lung
[8] = tested on: SF-268 CNS
[9] = tested on: U251 CNS
[10] = tested on: HS 578T breast
[11] = tested on: NCI-H522 lung
[12] = tested on: SK-OV-3 ovarian
[13] = tested on: SN12C renal
[14] = tested on: SK-MEL-2 melanoma
[15] = tested on: HT29 colon
[16] = tested on: MDA-MB-435
[17] = tested on: NCI/ADR-RES ovarian
[18] = tested on: HOP-62 NSCLC
[19] = tested on: OVCAR-4 ovarian
[20] = tested on: BT-549 breast
[21] = tested on: UACC-257 melanoma
[22] = tested on: OVCAR-3 ovarian
[23] = tested on: SK-MEL-5 melanoma
[24] = tested on: KM12 colon
[25] = tested on: HCT-15 colon
[26] = tested on: CAKI-1 renal
[27] = tested on: LOX IMVI melanoma
[28] = tested on: IGROV1 ovarian
[29] = tested on: MCF7 breast
[30] = tested on: SK-MEL-28 melanoma
[31] = tested on: SF-295 CNS
[32] = tested on: NCI-H23 lung
[33] = tested on: NCI-H460 lung
[34] = tested on: SF-539 CNS
[35] = tested on: OVCAR-8 ovarian
[36] = tested on: RPMI-8226 leukemia
[37] = tested on: SNB-75 CNS
[38] = tested on: TK-10 renal
[39] = tested on: UACC-62 melanoma
[40] = tested on: PC-3 prostate
[41] = tested on: UO-31 renal
[42] = tested on: EKVX NSCLC
[43] = tested on: A498 renal
[44] = tested on: MALME-3M melanoma
[45] = tested on: M14 melanoma

C#CC[C@@H]1C[C@]2(C)[C@H]3CC[C@@H]4[C@H]5C(C(=C)C)CC[C@]5(C(=O)NCCCCN)CC[C@@]4(C)[C@]3(C)CC[C@H]2C(C)(C)[C@H]1OC(C)=O (stereo not given in full)
GI50 [1]: 1.83 µM | TGI [1]: 3.74 µM | GI50 [2]: 1.67 µM | TGI [2]: 3.06 µM | GI50 [3]: 1.65 µM | TGI [3]: 3.01 µM | GI50 [4]: 1.79 µM | TGI [4]: 3.45 µM | GI50 [5]: 1.55 µM | TGI [5]: 3.14 µM | GI50 [6]: 1.68 µM | TGI [6]: 3.3 µM | GI50 [7]: 2.03 µM | TGI [7]: 4.84 µM | GI50 [8]: 1.85 µM | TGI [8]: 3.93 µM | GI50 [9]: 1.81 µM | TGI [9]: 3.51 µM | GI50 [10]: 1.82 µM | TGI [10]: 3.81 µM | GI50 [11]: 1.8 µM | TGI [11]: 3.67 µM | GI50 [12]: 1.94 µM | TGI [12]: 3.54 µM | GI50 [13]: 1.73 µM | TGI [13]: 3.34 µM | GI50 [14]: 1.71 µM | TGI [14]: 3.4 µM | GI50 [15]: 1.9 µM | TGI [15]: 4.04 µM | GI50 [16]: 1.73 µM | TGI [16]: 3.19 µM | GI50 [17]: 1.82 µM | TGI [17]: 3.98 µM | GI50 [18]: 1.91 µM | TGI [18]: 4.07 µM | GI50 [19]: 1.76 µM | TGI [19]: 3.33 µM | GI50 [20]: 1.76 µM | TGI [20]: 3.34 µM | GI50 [21]: 1.89 µM | TGI [21]: 3.77 µM | GI50 [22]: 1.78 µM | TGI [22]: 3.33 µM | GI50 [23]: 1.8 µM | TGI [23]: 3.27 µM | GI50 [24]: 1.81 µM | TGI [24]: 3.36 µM | GI50 [25]: 1.73 µM | TGI [25]: 3.45 µM | GI50 [26]: 1.6 µM | TGI [26]: 3.07 µM | GI50 [27]: 1.56 µM | TGI [27]: 3 µM | GI50 [28]: 1.73 µM | TGI [28]: 3.35 µM | GI50 [29]: 1.67 µM | TGI [29]: 3.86 µM | GI50 [30]: 1.76 µM | TGI [30]: 3.25 µM | GI50 [31]: 1.84 µM | TGI [31]: 3.41 µM | GI50 [32]: 1.85 µM | TGI [32]: 3.53 µM | GI50 [33]: 1.91 µM | TGI [33]: 3.71 µM | GI50 [34]: 1.66 µM | TGI [34]: 3.11 µM | GI50 [35]: 2.21 µM | TGI [35]: 5.34 µM | GI50 [36]: 2.1 µM | TGI [36]: 5.06 µM | GI50 [37]: 1.41 µM | TGI [37]: 2.78 µM | GI50 [38]: 1.86 µM | TGI [38]: 3.48 µM | GI50 [39]: 1.82 µM | TGI [39]: 3.26 µM | GI50 [40]: 1.64 µM | TGI [40]: 3.17 µM | GI50 [41]: 1.56 µM | TGI [41]: 2.95 µM | GI50 [42]: 1.84 µM | TGI [42]: 3.78 µM | GI50 [43]: 1.78 µM | TGI [43]: 3.19 µM | GI50 [44]: 1.68 µM | TGI [44]: 3.33 µM | GI50 [45]: 1.77 µM | TGI [45]: 3.46 µM
